From patent US12291515B2, “Pyrrolidine derivative and use thereof” (Rushi Biotech (Hangzhou) Co., Ltd, priority 2021, dated 2025)
pIC50: −log10 of the molar value.

Tests used:
Format in all cases: cell-based
[1] = tested on: Human gastric cancer cell MKN45; test: CCK-8 cell proliferation assay, MKN-45; details: MKN-45 cells, CCK-8, 24 hrs with drug, OD 450 nm
Experimental: (§1) The effect of samples on the proliferation of human tumor cells in vitro was determined by CCK-8 cell proliferation assay.
(§2) The cells were assayed through a method including the following steps:
(§3) 1) The cells were digested, counted, and prepared into a cell suspension in a corresponding culture medium (Table 1) (5×10^4 cells/ml for CFPAC-1 and RPMI 8226, and 3.5×10^4 cells/ml for rest cells). The cell suspension was added to each well of a 96-well plate in 100 μl well.
(§4) 2) Then the 96-well plate was incubated for 24 hrs in an incubator at 37° C. and 5% CO2.
(§5) 3) The drug was diluted with the culture medium to the required working concentration. 100 μl of the corresponding drug containing medium was added to each well. A negative control group (added with drug-free culture medium) was also set.
(§6) 4) Then the 96-well plate was incubated for 24 hrs in an incubator at 37° C. and 5% CO2.
(§7) 5) The 96-well plate was stained with CCK-8, and The OD value was determined at λ=450 nm.
(§8) a) 10 μl of CCK-8 was added to each well, and incubated in the incubator for another 2-3 hrs.
(§9) b) The content was mixed uniformly by shaking gently on a shaker for 10 min, and the bubbles in the 96-well plate were removed.
(§10) 6) The inhibition rate in each group was calculated.

[2] = tested on: Human pancreatic cancer cell CFPAC-1; test: CCK-8 cell proliferation assay, CFPAC-1; details: CFPAC-1 cells, CCK-8, 24 hrs with drug, OD 450 nm
Experimental: as §1, §2, §3, §4, §5, §6, §7, §8, §9, §10

[3] = tested on: Human colon cancer cell HCT-116; test: CCK-8 cell proliferation assay, HCT116; details: HCT116 cells, CCK-8, 24 hrs with drug, OD 450 nm
Experimental: as §1, §2, §3, §4, §5, §6, §7, §8, §9, §10

[4] = tested on: Human lung adenocarcinoma cell A549; test: CCK-8 cell proliferation assay, A549; details: A549 cells, CCK-8, 24 hrs with drug, OD 450 nm
Experimental: as §1, §2, §3, §4, §5, §6, §7, §8, §9, §10

[5] = tested on: Human multiple myeloma cell RPMI 8226; test: CCK-8 cell proliferation assay, RPMI8226; details: RPMI8226 cells, CCK-8, 24 hrs with drug, OD 450 nm
Experimental: as §1, §2, §3, §4, §5, §6, §7, §8, §9, §10

[6] = tested on: Human esophageal cancer cell TE-1; test: CCK-8 cell proliferation assay, TE-1; details: TE-1 cells, CCK-8, 24 hrs with drug, OD 450 nm
Experimental: as §1, §2, §3, §4, §5, §6, §7, §8, §9, §10

[7] = tested on: Human hepatoma cell HepG2; test: CCK-8 cell proliferation assay, HepG2; details: HepG2 cells, CCK-8, 24 hrs with drug, OD 450 nm
Experimental: as §1, §2, §3, §4, §5, §6, §7, §8, §9, §10

Row | SMILES | pIC50 [1] | pIC50 [2] | pIC50 [3] | pIC50 [4] | pIC50 [5] | pIC50 [6] | pIC50 [7]
1 | O=C(NCCCCCCC1CCN(C(=O)C2CCCN2)C1)Nc1ccncc1 (stereo not drawn) [BSS-TP106, 1-(6-(1-(2-pyrrolidinylformyl)pyrrolidin-3-yl)hexyl)-2-(4-pyridinyl)urea] | 7.24 | 7.34 | 7.18 | 7.17 | 7.33 | 7.01 | 6.92
2 | O=C(NCCCCCC1CCN(C(=O)c2ccccc2)C1)Nc1cccnc1 (stereo not drawn) [BSS-TP023, 1-(5-(1-(benzoyl)pyrrolidin-3-yl)pentyl)-2-(3-pyridinyl)urea] | 7.12 | 7.34 | 7.16 | 7.28 | 7.38 | 6.99 | 7.14
3 | COc1cccc(OC)c1C(=O)N1CCC(CCCCCCCNC(=O)Nc2ccnc(F)c2)C1 (stereo not drawn) [BSS-TP130] | 7.14 | 7.37 | 7.34 | 7.25 | 7.42 | 7.21 | 7.26
4 | O=C(NCCCCCCC1CCN(C(=O)c2cc3ccccc3o2)C1)Nc1ccncc1 (stereo not drawn) [BSS-TP122, 1-(6-(1-(2-benzofurylformyl)pyrrolidin-3-yl)hexyl)-2-(4-pyridinyl)urea] | 7.21 | 7.31 | 7.16 | 7.17 | 7.59 | 7.20 | 7.15

Now from value to molecule:

Row | pIC50 [1] | pIC50 [2] | pIC50 [3] | pIC50 [4] | pIC50 [5] | pIC50 [6] | pIC50 [7] | SMILES
5 | 7.40 | 7.41 | 7.17 | 7.29 | 7.34 | 7.06 | 7.10 | O=C(NCCCCCCC1CCN(C(=O)c2ccco2)C1)Nc1ccnc(F)c1 (stereo not drawn) [BSS-TP115]
6 | 7.41 | 7.54 | 7.66 | 7.46 | 7.68 | 7.19 | 7.30 | O=C(NCCCCCCC1CCN(C(=O)c2ccccc2)C1)Nc1ccncc1 (stereo not drawn) [BSS-TP101, 1-(6-(1-(benzoyl)pyrrolidin-3-yl)hexyl)-2-(4-pyridinyl)urea]
7 | 7.24 | 7.55 | 7.48 | 7.51 | 7.77 | 7.12 | 7.16 | O=C(NCCCCCC1CCN(C(=O)c2ccccc2)C1)Nc1ccncc1 (stereo not drawn) [BSS-TP007, 1-(5-(1-(benzoyl)pyrrolidin-3-yl)pentyl)-2-(4-pyridinyl)urea]
8 | 7.41 | 7.48 | 7.29 | 7.42 | 7.42 | 7.06 | 7.21 | O=C(NCCCCCC1CCN(C(=O)c2ccco2)C1)Nc1ccnc(F)c1 (stereo not drawn) [BSS-TP018]
9 | 7.26 | 7.39 | 7.24 | 7.39 | 7.38 | 7.16 | 7.11 | O=C(NCCCCCC1CCN(C(=O)c2ccc[nH]2)C1)Nc1ccnc(F)c1 (stereo not drawn) [BSS-TP017]
